Reference: US5081284A, “Proteinase inhibitor” (Suntory Limited, priority 1989, dated 1992)
Where two headings read alike, the source gives them in different places. Peptide text beside a SMILES is read from it. * marks the point of attachment. Cbz = O=C(OCc1ccccc1)*

Legend:
papain = target: T1, papain (Carica papaya, UniProt P00784); test: Anti-papain activity (casein hydrolysis, Lowry-Folin method); format: biochemical
T1 sequence (P00784 134-345): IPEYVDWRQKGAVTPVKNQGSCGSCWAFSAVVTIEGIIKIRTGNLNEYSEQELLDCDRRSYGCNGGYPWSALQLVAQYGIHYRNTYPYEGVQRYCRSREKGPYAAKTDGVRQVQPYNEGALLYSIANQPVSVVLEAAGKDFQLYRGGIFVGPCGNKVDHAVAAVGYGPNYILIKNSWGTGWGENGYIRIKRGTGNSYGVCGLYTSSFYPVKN
Description: (§1) A mixture of a test compound of the present invention, papain (0.015 units) and a citrate buffer solution (20 mM, pH=6.2,1 ml) containing EDTA (0.88 mg) was preincubated at 30° C. for 5 minutes and a substrate solution (1 ml) was added to start the reaction. The substrate was a 1% solution of casein in the citrate buffer. The reaction was performed at 30° C. for 20 minutes. The reaction was quenched by adding 6.5% trichloroacetic acid (3 ml) to the reaction solution. The amount of casein that had been hydrolyzed enzymatically in the trichloroacetic acid soluble fraction was measured by the Lowry-Folin method and the inhibitory activity of the test compound was determined by comparison with the control solution.
as §1, with “pH=6.2, 1” for “pH=6.2,1”

calpain I = target: T2, calpain I (Homo sapiens, UniProt P07384); test: Anti-calpain activity, calpain I (casein hydrolysis, Ross-Schatz method); format: biochemical
T2 sequence (P07384 1-714): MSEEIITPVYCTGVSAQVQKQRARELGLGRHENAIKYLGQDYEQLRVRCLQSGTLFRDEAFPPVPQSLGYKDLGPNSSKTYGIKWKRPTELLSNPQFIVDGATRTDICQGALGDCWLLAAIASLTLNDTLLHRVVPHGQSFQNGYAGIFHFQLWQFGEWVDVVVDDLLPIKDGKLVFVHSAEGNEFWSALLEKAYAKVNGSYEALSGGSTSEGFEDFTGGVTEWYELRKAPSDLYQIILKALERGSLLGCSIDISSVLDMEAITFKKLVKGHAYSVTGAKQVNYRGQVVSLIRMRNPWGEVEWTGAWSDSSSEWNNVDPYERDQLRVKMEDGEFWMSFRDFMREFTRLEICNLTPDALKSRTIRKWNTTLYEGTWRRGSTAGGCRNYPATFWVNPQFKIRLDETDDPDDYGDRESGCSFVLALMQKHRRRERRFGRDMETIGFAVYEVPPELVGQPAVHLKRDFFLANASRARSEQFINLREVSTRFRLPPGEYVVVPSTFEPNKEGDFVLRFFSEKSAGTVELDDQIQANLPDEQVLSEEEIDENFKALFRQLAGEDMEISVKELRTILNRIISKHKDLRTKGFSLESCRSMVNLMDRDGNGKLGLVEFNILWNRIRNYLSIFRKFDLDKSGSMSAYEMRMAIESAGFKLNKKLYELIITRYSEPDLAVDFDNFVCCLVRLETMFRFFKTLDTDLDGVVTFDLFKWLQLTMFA
T2 sequence (P04632 1-268 partner): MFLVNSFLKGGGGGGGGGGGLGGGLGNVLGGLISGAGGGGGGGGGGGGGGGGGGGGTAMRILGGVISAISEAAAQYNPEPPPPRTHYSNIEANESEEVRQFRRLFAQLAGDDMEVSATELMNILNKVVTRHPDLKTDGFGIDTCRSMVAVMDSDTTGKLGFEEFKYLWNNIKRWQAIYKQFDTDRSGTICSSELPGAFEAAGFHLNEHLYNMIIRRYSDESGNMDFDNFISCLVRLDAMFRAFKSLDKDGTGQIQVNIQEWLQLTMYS

calpain II = target: T3, calpain II (Homo sapiens, UniProt P17655); test: Anti-calpain activity, calpain II (casein hydrolysis, Ross-Schatz method); format: biochemical
T3 sequence (P17655 1-700): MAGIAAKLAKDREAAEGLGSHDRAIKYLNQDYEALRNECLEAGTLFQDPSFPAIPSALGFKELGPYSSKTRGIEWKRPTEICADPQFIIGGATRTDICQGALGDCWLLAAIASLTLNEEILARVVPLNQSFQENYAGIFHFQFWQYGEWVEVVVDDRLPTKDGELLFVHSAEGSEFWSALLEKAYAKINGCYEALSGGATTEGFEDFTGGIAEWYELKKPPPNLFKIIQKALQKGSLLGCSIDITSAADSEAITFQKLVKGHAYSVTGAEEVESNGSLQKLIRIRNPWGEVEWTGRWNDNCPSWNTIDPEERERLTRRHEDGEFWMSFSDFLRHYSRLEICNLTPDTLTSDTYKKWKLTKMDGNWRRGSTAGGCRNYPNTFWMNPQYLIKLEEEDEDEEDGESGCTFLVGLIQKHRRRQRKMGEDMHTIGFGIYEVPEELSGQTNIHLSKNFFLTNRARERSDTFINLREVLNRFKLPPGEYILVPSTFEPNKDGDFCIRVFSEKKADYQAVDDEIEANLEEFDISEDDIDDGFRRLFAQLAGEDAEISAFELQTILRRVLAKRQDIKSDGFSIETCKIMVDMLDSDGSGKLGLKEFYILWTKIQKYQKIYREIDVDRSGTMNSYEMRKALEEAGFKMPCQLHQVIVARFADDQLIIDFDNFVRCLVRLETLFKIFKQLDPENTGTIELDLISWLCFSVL
T3 sequence (P04632 1-268 partner): T2 sequence (P04632 1-268 partner)

cathepsin B = cathepsin B (Bos taurus, UniProt P07688); test: Anti-cathepsin activity (cathepsin B, benzyloxycarbonyl-L-lysine-p-nitrophenyl ester substrate); format: biochemical, bovine; conditions: Table 8 (Example 29); pH 5.1, 30° C., from bovine spleen; read-out: Inhibitory activity toward cathepsin B, IC50
Description: A mixture of a test compound of the present invention and an acetate buffer solution (25 mM, pH=5.1, with 1 mM EDTA, 3.15 ml) containing a substrate (benzyloxycarbonyl-L-lysine-p-nitrophenyl ester, 0.114 mg) was preincubated at 30° C. for 1 minute. To the mixture, a solution (0.05 ml) of cathepsin B (derived from bovine spleen; product of Sigma; 0.05 units) in the acetate buffer was added to start the reaction. Immediately after the start of reaction, the change in absorbance at 326 nm was measured and the inhibitory activity of the test compound was determined by comparison with the control solution.

[1] = Table 2 (Example 28), pH 6.2, 30° C., 20 minutes, casein, read-out: Inhibitory activity toward papain, IC50
[2] = Table 3 (Example 28), pH 7.5, 30° C., 30 minutes, casein, read-out: Inhibitory activity toward calpain I, IC50
[3] = Table 4 (Example 28), pH 7.5, 30° C., 30 minutes, casein, read-out: Inhibitory activity toward calpain II, IC50
[4] = Table 5 (Example 29), pH 6.2, 30° C., 20 minutes, casein, read-out: Inhibitory activity toward papain, IC50
[5] = Table 6 (Example 29), pH 7.5, 30° C., 30 minutes, casein, read-out: Inhibitory activity toward calpain I, IC50

Row | IC50 (cathepsin B) [nM] | SMILES | IC50 (papain; [1]) [nM] | IC50 (calpain I; [2]) [nM] | IC50 (calpain II; [3]) [nM] | other results
1 |  | CCCC[C@H](NC(=O)[C@H](CC(C)C)NC(=O)CCCc1ccccc1)C(=O)CCl [Example 27, N-(4-phenylbutanoyl)-L-leucyl-L-norleucyl chloromethyl] | 25 | 71 | 140 | 
2 |  | CCCC[C@@H](C=O)NC(=O)[C@H](CC(C)C)NC(=O)OCc1ccccc1 [Example 20, N-benzyloxycarbonyl-L-leucyl-L-norleucinal] |  | 52 | 34 | IC50 (papain; [4]): 310 nM; IC50 (calpain I; [5]): 710 nM; IC50 (calpain II; Table 7 (Example 29), pH 7.5, 30° C., 30 minutes, casein, read-out: Inhibitory activity toward calpain II, IC50): 130 nM
3 | 100000 | CCCC[C@@H](C=O)NC(=O)[C@H](CC(C)C)N1C(=O)c2ccccc2C1=O [Example 17, N-phthaloyl-L-leucyl-L-norleucinal] |  |  |  | 
4 |  | CSCC[C@@H](C=O)NC(=O)[C@H](CC(C)C)NC(=O)OCc1ccccc1 [Example 21, N-benzyloxycarbonyl-L-leucyl-L-methioninal] (Cbz-Leu-Met-aldehyde) |  |  | 25 | 
5 |  | CC(C)C[C@H](NC(=O)CCCc1ccccc1)C(=O)N[C@H](C=O)Cc1ccccc1 [Example 22, N-(4-phenyl)butanoyl-L-leucyl-L-phenylalaninal] | 18 |  | 29 | 
6 |  | CC(=O)N[C@@H](CC(C)C)C(=O)N[C@@H](CC(C)C)C(=O)N[C@H](C=O)CCCNC(=N)N [Leupeptin, reference compound] | 53 |  |  | IC50 (calpain I): 210 nM; IC50 (calpain II): 940 nM
7 | 110 | CCCC[C@@H](C=O)NC(=O)[C@H](CCCC)NC(=O)OCc1ccccc1 [Example 18, N-benzyloxycarbonyl-L-norleucyl-L-norleucinal] |  |  |  | IC50 (calpain I; [5]): 700 nM
8 |  | CC(C)C[C@H](NC(=O)OCc1ccccc1)C(=O)N[C@H](C=O)Cc1ccccc1 [Example 19, N-benzyloxycarbonyl-L-leucyl-L-phenylalaninal] (Cbz-Leu-Phe-aldehyde) |  | 100 | 35 | 
9 |  | CCCC[C@@H](C=O)NC(=O)[C@H](CC(C)C)NC(=O)CCCc1ccccc1 [Example 23, N-(4-phenylbutanoyl)-L-leucyl-L-norleucinal] | 15 | 40 | 320 | 
10 | 110 | CCCCCCCC(=O)N[C@@H](CC(C)C)C(=O)N[C@H](C=O)CCCC [Example 1, N-caprylyl-L-leucyl-L-norleucinal] |  |  |  | IC50 (calpain I; [5]): 160 nM
11 |  | CCCC[C@H](NC(=O)[C@H](CC(C)C)NC(=O)OCc1ccccc1)C(=O)CCl [Example 26, N-benzyloxycarbonyl-L-leucine 1s-chloroacetyl-n-pentylamide] | 12 | 150 | 120 | 
12 | 32000 | CCCC[C@@H](C=O)NC(=O)[C@H](CC(C)C)NC(c1ccccc1)(c1ccccc1)c1ccccc1 [Example 15, N-triphenylmethyl-L-leucyl-L-norleucinal] |  |  |  | 
13 | 9200 | CCCCCC(=O)N[C@@H](CC(C)C)C(=O)N[C@H](C=O)CCCC [Example 2, N-caproyl-L-leucyl-L-norleucinal] |  |  |  | 
14 |  | CSCC[C@@H](C=O)NC(=O)[C@H](CC(C)C)NC(=O)CCCc1ccccc1 [Example 24, N-(4-phenyl)butanoyl-L-leucyl-L-methioninal] | 19 | 38 | 71 | 

Row | SMILES | IC50 (cathepsin B) [nM] | IC50 (papain; [1]) [nM] | IC50 (calpain I; [2]) [nM] | IC50 (calpain II; [3]) [nM] | other results
15 | CCCC[C@@H](C=O)NC(=O)[C@H](CC(C)C)NS(=O)(=O)c1ccc(C)cc1 [Example 12, N-(p-toluenesulfonyl)-L-leucyl-L-norleucinal] | 1200 |  |  |  | IC50 (papain; [4]): 180 nM; IC50 (calpain I; [5]): 110 nM
16 | CCCC[C@@H](C=O)NC(=O)[C@H](CC(C)C)NC(=O)OC12CC3CC(CC(C3)C1)C2 [Example 5, N-adamantyloxycarbonyl-L-leucyl-L-norleucinal] | 180 |  |  |  | IC50 (papain): 210 nM; IC50 (calpain I; [5]): 150 nM
17 | CCCC[C@@H](C=O)NC(=O)[C@H](CC(C)C)NC(=O)OCC[Si](C)(C)C [Example 11, N-(2-trimethylsilylethyloxycarbonyl)-L-leucyl-L-norleucinal] | 960 |  |  |  | 
